Test results as given in ChEMBL document CHEMBL1157344, “Botcinins E and F and Botcinolide from Botrytis cinerea and structural revision of botcinolides” (2006).
Converted amounts (≈) assume the structure as drawn.

Tested on: Pyricularia grisea
Assay: Antifungal activity against Magnaporthe grisea
Format: functional

SMILES | MIC
CCCC[C@H](O)/C=C/C(=O)O[C@@H]1[C@@H](C)[C@@H]2OC(=O)[C@H](C)[C@H](O)[C@@]2(C)O[C@H]1C [3-O-DEACETYLBOTCININ A] | 100 µM (≈ 38.4 µg/mL)
CCCC[C@H](O)/C=C/C(=O)O[C@@H]1[C@@H](C)[C@H](O)[C@@](C)([C@@H](O)[C@@H](C)C(=O)O)O[C@H]1C [BOTCINIC ACID] | 100 µM (≈ 40.2 µg/mL)
CCCCCC[C@H](O)/C=C/C(=O)O[C@@H]1[C@@H](C)[C@@H]2OC(=O)[C@H](C)[C@H](OC(C)=O)[C@@]2(C)O[C@H]1C [BOTCININ B] | 12.5 µM (≈ 5.68 µg/mL)
CCCC[C@H](O)/C=C/C(=O)O[C@@H]1[C@@H](C)[C@@H]2OC(=O)C(C)=C[C@@]2(C)O[C@H]1C [BOTCININ D] | 12.5 µM (≈ 4.58 µg/mL)
CCCC[C@H](O)/C=C/C(=O)O[C@@H]1[C@@H](C)[C@@H]2OC(=O)[C@@H](C)[C@H](O)[C@@]2(C)O[C@H]1C [BOTCININ F] | 100 µM (≈ 38.4 µg/mL)
